Results reported in article PMC4838304, “Effective Design of Multifunctional Peptides by Combining Compatible Functions” (PLoS Computational Biology, 2016).
Ends that are not written are not given here.

Experiments:
[1] = test system: pheromone-signaling pathway (Fus1-eGFP) in MATa cells; test: Pheromone signaling assay, Fus1-GFP expression and shmoo phenotype; assay type: cell-based, Saccharomyces cerevisiae; conditions: BY4741 fus1::eGFP, 60 μM peptide (20 μM for α-factor), 3h
Method: Finally, the activity of the α-factor embedded in the peptides was evaluated by activation of the pheromone-signaling pathway in MATa cells of S. cerevisiae. We monitored the pheromone signaling activity by following the expression of the GFP-labeled Fus1 protein. Fus1 is among the proteins with the highest pheromone-induced expression and is required for cell-cell fusion during mating. […] The observed phenotype was consistent with the activation of signaling showing a mating protrusion, often called “shmoo” as well as the absence of budding due to inhibition of the Cdc28 cyclin [35, 36].
Fig 5 Pheromone activity. The pheromone signaling pathway is confirmed by the expression of Fus1-GFP, characteristic “shmoo” phenotype and the absence of budding observed in differential interference contrast (DIC) bright field. Concentrations were 20 μM for α-factor and 60 μM for all other peptides. The negative control was water without any peptide.
Pheromone signaling induction in Saccharomyces cerevisiae was measured by induction of eGFP fluorescence in a BY4741 strain containing the Fus1-eGFP construct in place of the wild type Fus1 (MATa his3Δ1 leu2Δ0 met15Δ0 ura3Δ0 fus1::eGFP HIS3MX6, obtained from the yeast GFP collection). The BY4741 fus1::eGFP strain was grown overnight in YPD to mid-log phase and diluted to 10^6 cells/mL. Samples were treated with the respective peptide concentrations and incubated for 3h before mixing 1:1 with low-diffusivity agarose suspended on a covered glass slide. Images were taken with an Olympus FV10 confocal microscope using a 60x objective with […]. Images were analyzed using Fiji (www.fiji.sc). The only modifications applied to the images were separation of the bright field and GFP channels, adjustment of brightness and contrast to 50% and addition of scale bars.

BY4741 yeast cells = test: Internalization assay in yeast, confocal microscopy; assay type: cell-based, Saccharomyces cerevisiae; conditions: TAMRA-labeled versions, 60 μM, BY4741, pictures at 0, 10 and 20 min
Source text: We first evaluated whether the designed peptides retained the activity of the templates. The presence of the NLS sequence may locate peptides in the nuclei of cells; for that to happen first the peptides have to be internalized. […] For yeast cells, confocal microscopy was used to evaluate CPP activity in our peptides (see Fig 2).
Fig 2 Designed peptides internalized into yeast cells. (A-F) Internalization assays in BY4741 yeast cells for peptide controls where Arg and Lys residues were replaced by Glu residues (A-C) and the original peptides (D-F). All peptides were used at 60 μM (final concentration) and labeled with the TAMRA fluorophore (see Table 1 and Materials and Methods for further details).
All 6 fluorogenic peptides (TAMRA-peptides, see Table 1) were prepared to 600μM in water as a 10X stock solution. Although all the peptides were apparently soluble in water, they all formed aggregates under the microscope. […] These samples were observed under a multi-photon confocal microscope (Olympus FV1000) and pictures were recorded at 0, 10 and 20 min after the peptide addition. […] Bright field images were chosen from the in-focus z-stack, whereas TAMRA images denote the average fluorescence across the entire z-stack to obtain the fluorescence inside the entire cell volume. Images were analyzed using Fiji (http://fiji.sc/Downloads#Fiji).

[2] = Circular dichroism, secondary structure content (CONTIN/LL); assay type: physicochemical; conditions: for Secondary Structure Random coil / Secondary Structure α-Helix / Secondary Structure β-Sheet: 0.3mg in 1mL, 20°C, far-UV CD, CONTIN/LL
Method: We studied the structural properties of the peptides in vitro, using circular dichroism (see Materials and Methods). The far-UV CD spectra for NLS-CE, NLS-α and NLS-α-CE in water matched the characteristics of a random coil conformation.
Circular dichroism spectra were recorded on a ChirascanTM CD Spectrometer (Applied Photophysics, UK) equipped with a peltier temperature controller. 0.3mg of each peptide was dissolved in 1mL of water or 50% aqueous trifluoroethanol and placed in quartz cuvettes of 0.1cm path length. Far-UV CD spectra were collected from 185 to 250 nm at 20°C. Spectra were averaged over 5 scans and the averaged blank spectra of solvents were subtracted. Ellipticity is reported as mean residue molar ellipticity and recorded in terms of molar elipticity [θ] (deg cm^2 dmol^−1). CONTIN/LL within the CDPro analysis software program was used to estimate the secondary structure content of the peptides.

[3] = test system: Escherichia coli strain DH5α; assay type: cell-based; conditions: 12 h

| Sequence | pheromone signaling activity (Fus1-GFP expression, phenotype) [1] | internalization into yeast cells (BY4741 yeast cells) | Secondary Structure Random coil ([2]; 50% TFE) [%] | Secondary Structure α-Helix ([2]; 50% TFE) [%] | Secondary Structure β-Sheet ([2]; 50% TFE) [%] | aggregation suggested by decrease in negative ellipticity ([2]; 50% TFE, CD spectra) | Secondary Structure Random coil ([2]; water) [%] | Secondary Structure α-Helix ([2]; water) [%] | Secondary Structure β-Sheet ([2]; water) [%] | E. coli MIC for 100% inhibition [3] [µM] |
| --- | --- | --- | --- | --- | --- | --- | --- | --- | --- | --- |
| FRKWRRKPKKKRKVWWRKVKRRWHWLQLKPGQPMY [NLS-α-CE] | partial shmoo-like phenotypes | quickly accumulate in the cell membrane and inside the yeast cells | 59 | 10 | 31 | TFE promoted aggregation of the peptides | 64 | 6 | 30 | 2 |
| KRRWRFVWMNPKKKRKVPPWPYLLWWHWLQLKPGQPMY [chimera] | partial shmoo-like phenotypes | quickly accumulate in the cell membrane and inside the yeast cells | 48 | 24 | 28 |  | 59 | 8 | 33 | 22 |
